Assay results published in PubChem BioAssay AID2060912 (Molecular Pharmacology Branch, DTP, NCI, 2025).

System: HUVEC/MSC spheroids viability
Assay: Human HUVEC/MSC cell line growth inhibition [KRAS2];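 for viability, T/C: percent of DMSO vehicle control luminescence so 100% = untreated viability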
Details: for IC50: curve of first compound; for viability, T/C: stronger effect = lower value
Excerpt: Multicellular complex tumor spheroid response to RAS pathway inhibitors in combination with a targeted agents in patient-derived cell lines with oncogenic KRAS variants from multiple cancer types
A high-throughput screen of multi-cell type tumor spheroids was designed to identify active combinations of targeted small molecules and KRAS pathway inhibitors. Complex spheroids include a stromal component modeled by human endothelial cells (HUVEC) and fibroblasts modeled by human mesenchymal stem cells (MSCs). The concentration ranges selected for each drug and investigational agent were based upon clinically achievable concentrations if the clinical Cmax of the agent was known. * [This particular assayID is a followup dataset requested by reviewers of the manuscript. It is a test of the HUVEC and MSC without the tumor cells, and was conducted using different drug plates and a different plate layout.]
Compounds. The drugs and investigational agents: BI-3406 (NSC825286), BAY-293 (NSC824723), batoprotafib (TNO155; NSC825523), sotorasib (AMG 510; NSC818433), MRTX1257 (NSC819558), elimusertib (BAY 1895344; NSC800525), molibresib (GSK525762; NSC774829), temuterkib (LY3214996; NSC803410), venetoclax (NSC766270), alisertib (NSC759677), olaparib (NSC753686), talazoparib (NSC767125), erdafitinib (NSC781556), ipatasertib (NSC767898), cabozantinib (NSC761068), nintedanib (NSC756659), abemaciclib (NSC768073), docetaxel (NSC628503), trametinib (NSC758246), and sapanisertib (NSC764658) were obtained from the National Cancer Institute (NCI) Developmental Therapeutics Program Chemical Repository. The FDA-approved anticancer drug set is available from the Developmental Therapeutics Program. […] The stock solutions were prepared in dimethyl sulfoxide (DMSO, Sigma-Aldrich, St. Louis, MO, cat. D2650) at 800-fold the tested concentration and stored at -70 degrees C prior to their use. All drugs and investigational agents were tested over a range starting from a high concentration at or near the clinical Cmax and decreasing in half-log increments. If the clinical Cmax for an agent had not been determined, the highest concentration tested was 10 microM.
Cell Culture. All cells were maintained in an incubator at 37 degrees C and 5% CO2 with 95% humidity. The PDC lines were cultured according to standard operating procedures established by the NCI PDMR (https://pdmr.cancer.gov/sops/default.htm). Briefly, all PDCs were thawed and cultured in Matrigel-coated flasks prepared with a working solution of 1X Ham's F-12 nutrient mix, without supplementation (Invitrogen, Waltham, MA, cat. 11765054), 100 U/mL penicillin-streptomycin (Invitrogen, cat. 15140122), and 2.5% Matrigel (Corning Inc., Corning, NY, cat. 354248) for the first three passages. All PDCs were cultured in complete DMEM/F-12 media containing advanced DMEM/F-12 (Invitrogen, cat. 12634028), 4.9% defined fetal bovine serum, heat inactivated (HyClone Laboratories Inc., Logan, UT, cat. SH30070.03HI), 389 ng/mL hydrocortisone (Sigma-Aldrich, cat. H4001), 9.7 ng/mL human EGF recombinant protein (Invitrogen, cat. PHG0313), 23.4 microg/mL adenine (Sigma-Aldrich, cat. A2786), 97.3 U/mL penicillin-streptomycin (Invitrogen, cat. 15140122), 1.9 mM L-glutamine (Invitrogen, cat. 25030081), and 9.7 microM Y-27632 dihydrochloride (Tocris Bioscience, Bristol, United Kingdom, cat. 1254). The PDCs were cultured in complete DMEM/F12 media without 9.7 microM Y-27632 dihydrochloride for at least two passages prior to the screen. The established cell line HOP-62 was cultured in RPMI 1640 medium, HEPES (Invitrogen, cat. 22400105) with 10% defined fetal bovine serum (HyClone Laboratories Inc., cat. SH30070.03) and 2 mM L-glutamine (Invitrogen, cat. 25030081). The pooled donor HUVEC were cultured in endothelial cell growth medium 2 (PromoCell, Heidelberg, Germany, cat. C-22011) and the hMSC were cultured in mesenchymal stem cell growth medium 2 (PromoCell, cat. C-28009). […]

[1] = second compound 0.0316 µM, first compound 0.0316 µM
[2] = second compound 0.0316 µM, first compound 0.1 µM
[3] = second compound 0.0316 µM, first compound 0.316 µM
[4] = second compound 0.0316 µM, first compound 1 µM
[5] = second compound 0.0316 µM, first compound 3.16 µM
[6] = second compound 0.0316 µM, first compound 10 µM
[7] = second compound 0.1 µM, first compound 0.0316 µM
[8] = second compound 0.1 µM, first compound 0.1 µM
[9] = second compound 0.1 µM, first compound 0.316 µM
[10] = second compound 0.1 µM, first compound 1 µM
[11] = second compound 0.1 µM, first compound 3.16 µM
[12] = second compound 0.1 µM, first compound 10 µM
[13] = second compound 0.316 µM, first compound 0.0316 µM
[14] = second compound 0.316 µM, first compound 0.1 µM
[15] = second compound 0.316 µM, first compound 0.316 µM
[16] = second compound 0.316 µM, first compound 1 µM
[17] = second compound 0.316 µM, first compound 3.16 µM
[18] = second compound 0.316 µM, first compound 10 µM
[19] = second compound 1 µM, first compound 0.0316 µM
[20] = second compound 1 µM, first compound 0.1 µM
[21] = second compound 1 µM, first compound 0.316 µM
[22] = second compound 1 µM, first compound 1 µM
[23] = second compound 1 µM, first compound 3.16 µM
[24] = second compound 1 µM, first compound 10 µM
[25] = second compound 3.16 µM, first compound 0.0316 µM
[26] = second compound 3.16 µM, first compound 0.1 µM
[27] = second compound 3.16 µM, first compound 0.316 µM
[28] = second compound 3.16 µM, first compound 1 µM
[29] = second compound 3.16 µM, first compound 3.16 µM
[30] = second compound 3.16 µM, first compound 10 µM
[31] = second compound 10 µM, first compound 0.0316 µM
[32] = second compound 10 µM, first compound 0.1 µM
[33] = second compound 10 µM, first compound 0.316 µM
[34] = second compound 10 µM, first compound 1 µM
[35] = second compound 10 µM, first compound 3.16 µM
[36] = second compound 10 µM, first compound 10 µM

COC(=O)c1ccc2c(C(=Nc3ccc(N(C)C(=O)CN4CCN(C)CC4)cc3)c3ccccc3)c(O)[nH]c2c1 + C=CC(=O)N1CCN(c2nc(=O)n(-c3c(C)ccnc3C(C)C)c3nc(-c4c(O)cccc4F)c(F)cc23)C(C)C1
IC50 (second compound 0.0316 µM): 2.67 µM | IC50 (second compound 0.1 µM): 2.77 µM | IC50 (second compound 0.316 µM): 3.64 µM | IC50 (second compound 1 µM): 3.14 µM | IC50 (second compound 3.16 µM): 3.92 µM | IC50 (second compound 10 µM): 2.42 µM | viability, T/C [1]: 92.2% | viability, T/C [2]: 85.4% | viability, T/C [3]: 85.9% | viability, T/C [4]: 61.6% | viability, T/C [5]: 51.7% | viability, T/C [6]: 3.33% | viability, T/C [7]: 86.8% | viability, T/C [8]: 101% | viability, T/C [9]: 99.8% | viability, T/C [10]: 66% | viability, T/C [11]: 50.3% | viability, T/C [12]: 0.39% | viability, T/C [13]: 79.2% | viability, T/C [14]: 87.9% | viability, T/C [15]: 96.2% | viability, T/C [16]: 83.4% | viability, T/C [17]: 56.5% | viability, T/C [18]: 3.54% | viability, T/C [19]: 88.4% | viability, T/C [20]: 101% | viability, T/C [21]: 115% | viability, T/C [22]: 75% | viability, T/C [23]: 52.5% | viability, T/C [24]: 0.39% | viability, T/C [25]: 94.3% | viability, T/C [26]: 149% | viability, T/C [27]: 126% | viability, T/C [28]: 80.5% | viability, T/C [29]: 67.8% | viability, T/C [30]: 0.46% | viability, T/C [31]: 90.2% | viability, T/C [32]: 102% | viability, T/C [33]: 145% | viability, T/C [34]: 85.4% | viability, T/C [35]: 39.4% | viability, T/C [36]: 1.51%

O=C(c1cc(Cc2n[nH]c(=O)c3ccccc23)ccc1F)N1CCN(C(=O)C2CC2)CC1 + C=CC(=O)N1CCN(c2nc(=O)n(-c3c(C)ccnc3C(C)C)c3nc(-c4c(O)cccc4F)c(F)cc23)C(C)C1
IC50 (second compound 0.0316 µM): > 10 µM | IC50 (second compound 0.1 µM): > 10 µM | IC50 (second compound 0.316 µM): > 10 µM | IC50 (second compound 1 µM): > 10 µM | IC50 (second compound 3.16 µM): > 10 µM | IC50 (second compound 10 µM): > 10 µM | viability, T/C [1]: 104% | viability, T/C [2]: 109% | viability, T/C [3]: 125% | viability, T/C [4]: 85.1% | viability, T/C [5]: 95% | viability, T/C [6]: 104% | viability, T/C [7]: 114% | viability, T/C [8]: 107% | viability, T/C [9]: 95.3% | viability, T/C [10]: 107% | viability, T/C [11]: 133% | viability, T/C [12]: 99.2% | viability, T/C [13]: 112% | viability, T/C [14]: 122% | viability, T/C [15]: 98.2% | viability, T/C [16]: 114% | viability, T/C [17]: 115% | viability, T/C [18]: 105% | viability, T/C [19]: 128% | viability, T/C [20]: 104% | viability, T/C [21]: 124% | viability, T/C [22]: 120% | viability, T/C [23]: 126% | viability, T/C [24]: 118% | viability, T/C [25]: 148% | viability, T/C [26]: 118% | viability, T/C [27]: 146% | viability, T/C [28]: 137% | viability, T/C [29]: 116% | viability, T/C [30]: 125% | viability, T/C [31]: 127% | viability, T/C [32]: 140% | viability, T/C [33]: 145% | viability, T/C [34]: 108% | viability, T/C [35]: 126% | viability, T/C [36]: 120%
